Reference: article PMC10937556, “Phenolic phytochemistry, in vitro, in silico, in vivo, and mechanistic anti-inflammatory and antioxidant evaluations of Habenaria digitata” (Frontiers in Pharmacology, 2024)

Test system: prostaglandin E2-induced paw edema
Test: Prostaglandin E2-induced paw edema
Conditions: 20 mg/kg, 4th hour (maximal)
Procedure: Employing prostaglandin E2, bradykinin, leukotriene, and histamine induced paw edema assays; the potential anti-inflammatory mechanism of the isolated compound was investigated. […] Sub-planter injections of prostaglandin E2 (0.01 mg/mL) or 10 mg/mL leukotriene or bradykinin (20 mg/mL) or 0.1 mL histamine (1 mg/mL) produced paw edema after 1 h. Each mouse’s paw volume was assessed immediately before and after sub-planter injection of various irritants (inflammatory agents) at 1–5 h.

Compound: Cc1cnc(O)nc1O [Compound 1, 5-methylpyrimidine-24,4-diol]
- Percentage inhibition of prostaglandin E2-induced paw edema: 82.0 ± 0.34%
